# Source: patent US9018351B2, “Peptide aptamers against tenascin C” (Industry-Academy Cooperation Foundation, priority 2007, dated 2015)
# Key:
# [1] = tested on: tenascin C-induced cell migration, U118MG cells; experiment: Wound scratch assay; type: cell-based, human; conditions: serum free medium, 18 hrs
# Method: (§1) FIGS. 6A-6D represent reversion of tenascin-C-induced cell morphology and migration by the peptide aptamer. […] Magnification, ×100. FIG. 6B was the results that numbers of round cell was scored and presented as percentage. Four independent experiments were performed. FIG. 6C represented U118MG migration with #2 peptides or scrambled peptides. The data are representative of three independent experiments. SD, P<0.001 relative to no treated samples. […] Whole cell extract were prepared and with anti-β-catenin antibody. Anti-β-actin was used as control.
# U118MG cells were grown until they become confluent on a 35 mm dish and were serum starved for 18 hrs in DMEM. A straight line was drawn with a marker on the outer surface of the dish bottom and an artificial wound was made by using a pipet tip. The dish was rinsed and then incubated with the serum free medium in the presence of #2 peptides or #2 scramble peptides. After 18 hrs incubation, cells were counted.
# [2] = tested on: tenascin C-induced cell rounding; experiment: Adhesion assay on fibronectin/tenascin C substratum; type: cell-based, human; conditions: glioblastoma cells on fibronectin/tenascin C substratum, 18 hrs
# Method: as §1
# Microtiter plates (6-well, Nunc, Roskilde, Denmark) were coated with 1 μg/cm^2 of fibrobectin or fibronectin and tenascin C for overnight at 4° C. The noncoated plastic surface was blocked with 1% heat-inactivated BSA in PBS. Before plating, cells were serum starved for 18 hrs in DMEM and trypsinized. Following soybean trypsin inhibitor treatment (100 μg/ml in PBS), cells were resuspended in serum-free medium and counted by hematocytometer. Approximately 1×10^5 cells were plated in each well and the selected peptide aptamer or scramble peptide was treated for 18 hrs, cells were observed under microscope.
# tenascin C [3] = target: T1, tenascin C (Homo sapiens, UniProt P24821); experiment: Immunofluorescence analysis of lung tissue microarray; type: binding
# T1 construct: a tissue microarray prepared with tissues from 52 lung cancer patients; from tissue; host or cells: paraffin-embedded human lung tumor and normal lung tissue (Seoul National University Bundang Hospital)
# T1 sequence (P24821 23-2201): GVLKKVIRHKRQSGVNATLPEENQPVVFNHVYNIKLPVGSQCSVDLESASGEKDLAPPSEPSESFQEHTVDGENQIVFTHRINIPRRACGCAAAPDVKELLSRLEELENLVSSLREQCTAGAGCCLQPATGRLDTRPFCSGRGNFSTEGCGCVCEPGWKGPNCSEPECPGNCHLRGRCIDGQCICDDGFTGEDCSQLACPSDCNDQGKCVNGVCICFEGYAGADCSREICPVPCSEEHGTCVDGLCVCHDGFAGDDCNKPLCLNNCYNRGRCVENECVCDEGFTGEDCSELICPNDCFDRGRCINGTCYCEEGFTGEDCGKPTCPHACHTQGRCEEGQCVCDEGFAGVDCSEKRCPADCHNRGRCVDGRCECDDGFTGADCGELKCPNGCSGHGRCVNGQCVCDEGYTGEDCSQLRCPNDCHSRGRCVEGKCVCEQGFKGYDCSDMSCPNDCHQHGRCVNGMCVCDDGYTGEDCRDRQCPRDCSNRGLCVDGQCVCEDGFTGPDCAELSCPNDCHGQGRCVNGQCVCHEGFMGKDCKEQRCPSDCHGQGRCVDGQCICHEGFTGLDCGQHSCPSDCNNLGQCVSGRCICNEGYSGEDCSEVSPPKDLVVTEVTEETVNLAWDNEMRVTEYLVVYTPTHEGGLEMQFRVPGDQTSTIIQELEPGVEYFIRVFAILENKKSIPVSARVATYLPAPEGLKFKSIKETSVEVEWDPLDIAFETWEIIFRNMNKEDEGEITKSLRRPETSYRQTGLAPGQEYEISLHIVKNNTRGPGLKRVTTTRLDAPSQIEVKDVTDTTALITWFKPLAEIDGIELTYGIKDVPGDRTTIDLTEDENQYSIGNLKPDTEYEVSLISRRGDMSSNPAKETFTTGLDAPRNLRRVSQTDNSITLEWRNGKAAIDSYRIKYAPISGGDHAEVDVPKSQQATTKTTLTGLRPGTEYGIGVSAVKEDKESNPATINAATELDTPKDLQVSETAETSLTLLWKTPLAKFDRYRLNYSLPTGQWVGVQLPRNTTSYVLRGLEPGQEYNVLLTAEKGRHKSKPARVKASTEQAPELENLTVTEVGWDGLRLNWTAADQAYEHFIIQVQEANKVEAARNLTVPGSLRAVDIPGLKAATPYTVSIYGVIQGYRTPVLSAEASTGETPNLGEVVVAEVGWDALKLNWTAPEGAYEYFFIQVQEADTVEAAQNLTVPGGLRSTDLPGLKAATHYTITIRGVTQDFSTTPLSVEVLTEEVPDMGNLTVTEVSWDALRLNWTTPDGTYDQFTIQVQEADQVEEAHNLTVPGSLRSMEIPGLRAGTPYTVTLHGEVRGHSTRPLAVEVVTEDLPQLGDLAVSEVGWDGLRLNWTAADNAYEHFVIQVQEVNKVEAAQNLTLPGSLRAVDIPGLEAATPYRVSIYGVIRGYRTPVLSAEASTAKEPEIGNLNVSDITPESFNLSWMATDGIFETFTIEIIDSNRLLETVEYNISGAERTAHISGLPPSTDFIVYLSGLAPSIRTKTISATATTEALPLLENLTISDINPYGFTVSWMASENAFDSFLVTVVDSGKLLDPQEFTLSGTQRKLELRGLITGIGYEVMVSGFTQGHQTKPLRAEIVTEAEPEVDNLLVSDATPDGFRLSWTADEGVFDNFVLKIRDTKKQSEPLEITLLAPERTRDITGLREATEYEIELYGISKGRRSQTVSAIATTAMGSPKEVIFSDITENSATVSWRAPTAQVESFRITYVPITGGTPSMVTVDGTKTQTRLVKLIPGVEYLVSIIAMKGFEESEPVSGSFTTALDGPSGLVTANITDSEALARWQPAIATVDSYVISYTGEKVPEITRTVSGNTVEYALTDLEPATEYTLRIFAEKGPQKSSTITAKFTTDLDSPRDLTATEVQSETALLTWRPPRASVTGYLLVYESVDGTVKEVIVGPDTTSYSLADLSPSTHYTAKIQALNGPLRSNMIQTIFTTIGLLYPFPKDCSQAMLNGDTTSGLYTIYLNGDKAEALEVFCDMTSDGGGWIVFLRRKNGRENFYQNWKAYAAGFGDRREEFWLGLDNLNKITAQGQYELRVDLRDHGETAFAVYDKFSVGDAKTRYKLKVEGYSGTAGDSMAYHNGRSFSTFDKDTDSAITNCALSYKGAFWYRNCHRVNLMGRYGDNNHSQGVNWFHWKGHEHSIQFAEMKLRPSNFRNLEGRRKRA
# Method: FIGS. 5A-5D represent detection for binding of peptide aptamer #2 to tumor patient lung tissue. Paraffin-embedded lung tissue from an adenocarcinoma (FIG. 5A), squamous cell carcinoma (FIG. 5B), bronchioloalveolar carcinoma (FIG. 5C) and normal (FIG. 5D) tissue was incubated at 4° C. for O/N with anti-tenascin C antibody (1:1000 dilution) or with biotin-labeled peptide aptamer #2 (10 μM). Tissues were counterstained with Hoechst33258. Magnification, ×630.
# The lung tissue microarray was constructed from archived paraffin blocks at Seoul National University Bundang Hospital. It is composed of 36 adenocarcinomas, 15 squamous cell carcinomas, 1 bronchioloalveolar carcinoma, and 1 normal lung. Sections were dewaxed in xylene and rehydrated in graded concentrations of ethanol and distilled water. For antigen retrieval, sections were heated for 20 min in Target Retrieval Solution, Tris/EDTA (pH 9; Dako) using a pressure cooker. Staining was carried out with anti-tenascin C antibody (BC24; Sigma-aldrich, Saint Louis, Mo., 1:1000 dilution) or biotin-labeled peptide for O/N at 4° C. Secondary anti-mouse FITC-conjugated IgG antibody or TEXAS RED-conjugated streptavidin was used for 1 hr at room temperature in the dark. Cells were counterstained with Hoechst33258.
# [4] = tested on: endogenously expressed tenascin C in the cultured cell lines; experiment: Immunocytochemistry of cultured cancer cell lines with biotin-labeled peptide; type: binding, human; conditions: 1 mM biotin-labeled peptide, 1 hr, room temperature; for staining of SW620 cells: SW620 (medium tenascin C expression)
# Method: FIGS. 3A-3C represent binding pattern of the selected peptides to cultured cells. Cultured cells of SW620 (FIG. 3A), U251 (FIG. 3B) and HCT116 (FIG. 3C) were incubated at room temperature for 1 hr with 1 mM of biotin-labeled peptide aptamers (#1, #2), control peptide (NC), or peptide aptamer #2 (1 mM) plus anti-tenascin C antibody (1:1000 dilution). Nuclei were counterstained with Hoechst33258. Arrows indicate examples of positively stained cells. Magnification, ×1000 (FIG. 3A and FIG. 3C), ×630 (FIG. 3B). Cells were grown on coverslips, fixed with 3.7% paraformaldehyde for 15 min at room temperature, and permeabilized with 0.5% Triton X-100 in PBS. They were washed and blocked in 10% normal calf serum, 0.5% gelatin in PBS for 30 min at room temperature. Staining was carried out with biotin-labeled peptide for 1 hr at room temperature. Secondary TEXAS RED-conjugated streptavidin (Calbiochem, La Jolla, Calif., 1:200 dilution) was applied at room temperature for 50 min in the dark. The cells were counterstained with Hoechst33258. The present inventors utilized U251, SW620 and HCT116 cells as model cell lines for high, medium and no expression of tenascin C protein, respectively (FIG. 1). The biotin-labeled peptide aptamers were used to test whether they recognized the endogenously expressed tenascin C in the cultured cell lines. […] There was no signal with the negative peptide or when aptamer was omitted. Since the peptide aptamer #2 have high frequency and observed a higher level of staining, we used it in subsequent work. The level of staining with U251 cells was higher than with SW620 cells, which may reflect a higher level of tenascin C expression.
# tenascin C [5] = experiment: Immunofluorescence on frozen tumor xenograft tissue sections; type: binding, human; conditions: for staining of U118MG-derived tumor xenograft tissue sections: U118MG glioblastoma xenograft in nude mice, 10 μM biotin-labeled peptide or antibody 1:1000, O/N 4° C.
# Method: FIGS. 4A-4C represent immunofluorescence detection for binding of #2 peptide aptamer to U118MG-derived tumor xenograft tissue. Frozen tissue sections were incubated at 4° C. for O/N with anti-tenascin C antibody (1:1000 dilution) (FIG. 4A), anti-β-catenin antibody (1:100 dilution) (FIG. 4B), 10 μM biotin-labeled peptide aptamer (#2) or scrambled peptide (#2 scr) (FIG. 4C). Tissues were counterstained with Hoechst33258. Arrows indicate examples of positively stained cells. Magnification, ×630. Results using a xenograft mouse model with HT-29 colon cancer cells are also shown (FIG. 4D).
# A tumor xenograft was established by subcutaneous injection of 2×10^6 HT29 or U118MG cells into one flank of nude mice. When the tumor diameter reached approximately 9-10 mm, the mice were killed, and the tumor tissue was obtained and […] for storage at −80° C. Frozen sections 8-10 μm thick were cut, fixed with 3.7% paraformaldehyde for 15 min at room temperature, and permeabilized with 0.5% Triton X-100 in PBS. The cells were washed and blocked with 10% fetal bovine serum, 10% non fat dry milk and 3% BSA in PBS for 2 hrs at room temperature. They were stained with anti-tenascin C antibody (BC24; Sigma-Aldrich, Saint Louis, Miss., 1:1000 dilution), anti-β-catenin antibody (clone 14; BD Transduction Laboratories, Germany, 1:100 dilution), or biotin-labeled peptide for O/N at 4° C. Secondary FITC-conjugated anti-mouse IgG antibody (Sigma-Aldrich, Saint Louis, Miss., 1:1000 dilution) or TEXAS RED-conjugated streptavidin (Calbiochem, La Jolla, Calif., 1:1000 dilution) was used for 1 hr at room temperature in the dark. Cells were counterstained with Hoechst33258.
Sequence,effect on tenascin C-induced cell migration [1],effect on tenascin C-induced rounding morphology [2],"staining of normal lung tissue (tenascin C [3]; 1 normal lung, 10 μM biotin-labeled peptide, O/N 4° C.)","staining of lung cancer patient tissues (tenascin C [3]; 52 lung cancer patients, 10 μM biotin-labeled peptide or antibody 1:1000, O/N 4° C.)",staining of HCT116 cells ([4]; HCT116 (no tenascin C expression)),staining of SW620 cells [4],staining of U251 cells ([4]; U251 (high tenascin C expression)),staining of HT-29 tumor xenograft tissue sections (tenascin C [5]; HT-29 colon cancer xenograft (does not express tenascin C)),staining of U118MG-derived tumor xenograft tissue sections (tenascin C [5])
FHKHKSPALSPVGGG [peptide aptamer #2],significantly reduced,significant reversion of tenascin C-induced rounding morphology,No peptide aptamer #2 staining was detected,striking similarity of the staining patterns,no signal was detected,characteristic staining pattern of spots or long streaks in a polarized region of the plasma membrane,stained two distinct areas of the U251 cells,no aptamer signal was detected,same prominent pattern of staining in the forms of spots and blobs
FHKPFFPKGSARGGG [peptide aptamer #1],–,–,–,–,–,characteristic staining pattern of spots or long streaks in a polarized region of the plasma membrane,–,–,–
"VSPKSHLKAHPFGGG [#2 scramble, scrambled form of peptide #2, control, reference compound]",No significant reduction in cell migration,no significant change,–,–,–,–,–,–,no significant staining
